Key:
human ERK2 = target: T1, human ERK2 (Homo sapiens, UniProt P28482); assay: LanthaScreen TR-FRET enzymatic assay, ERK2; details: IC50 values of ERK2 biochemical activity; 5 μM ATP, 400 nM ATF2-GFP substrate
T1 construct: recombinantly expressed as GST-tagged full-length protein purified from E. coli; GST; purchased Invitrogen PV3311; host or cells: E. coli
Outline: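 IC50 values were fitted from percent of DMSO control using a 520/495 nm TR-FRET ratio with terbium anti-pATF2 (pThr71), read after an EDTA stop. The kinase reaction lasted one hour at room temperature, following 15-min compound pre-treatment. It contained 5 μM ATP, 400 nM ATF2-GFP substrate and 20 ng/ml in vitro-activated GST-ERK2.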

Colo205 cell line = assay: Colo205 cell proliferation assay (MTT assay, WST-8 readout); format: cell-based; details: Homo sapiens; IC50 values of growth inhibition in Colo 205 cells; 72 hours
Outline: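 Growth-inhibition IC50 was derived from WST-8 absorbance at 450 nm (2 h development) after 72 h compound exposure at 37° C. Exposure used final 50 μM–0.005 μM compound in 0.5% DMSO. Colo205 cells had been plated at 5,000/well in RPMI-1640 plus 10% FBS and allowed 24 h to attach.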

T1 sequence (P28482 whole entry): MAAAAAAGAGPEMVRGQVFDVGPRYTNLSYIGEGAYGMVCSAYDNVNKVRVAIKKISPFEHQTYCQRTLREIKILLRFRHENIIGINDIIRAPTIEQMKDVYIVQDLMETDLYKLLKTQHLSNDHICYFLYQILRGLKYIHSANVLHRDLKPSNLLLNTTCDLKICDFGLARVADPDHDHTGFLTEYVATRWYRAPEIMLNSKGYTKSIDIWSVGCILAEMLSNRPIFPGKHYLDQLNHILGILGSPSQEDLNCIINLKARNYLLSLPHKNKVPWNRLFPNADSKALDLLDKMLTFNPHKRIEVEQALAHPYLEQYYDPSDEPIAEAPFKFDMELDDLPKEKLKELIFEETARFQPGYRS

Structure (SMILES)	IC50 (human ERK2) [nM]	IC50 (Colo205 cell line) [nM]
Cc1cc(-c2n[nH]c3ccc(-c4ccn(Cc5ccccc5)c(=O)c4)cc23)ccn1 [Example 60, 1-benzyl-4-(3-(2-methylpyridin-4-yl)-1H-indazol-5-yl)pyridin-2(1H)-one]	< 10	500 to 1000
Cc1cc(-c2n[nH]c3ccc(-c4ccn(Cc5ccc(F)c(F)c5)c(=O)c4)cc23)ccn1 [Example 61, 1-(3,4-difluorobenzyl)-4-(3-(2-methylpyridin-4-yl)-1H-indazol-5-yl)pyridin-2(1H)-one]	< 10	500 to 1000
Cc1cc(-c2n[nH]c3ccc(-c4ccn(Cc5ccc(Cl)c(F)c5)c(=O)c4)cc23)ccn1 [Example 62, 1-(4-chloro-3-fluorobenzyl)-4-(3-(2-methylpyridin-4-yl)-1H-indazol-5-yl)pyridin-2(1H)-one]	< 10	500 to 1000
Cc1cc(-c2n[nH]c3ccc(-c4ccn(Cc5cccc(Cl)c5F)c(=O)c4)cc23)ccn1 [Example 63, 1-(3-chloro-2-fluorobenzyl)-4-(3-(2-methylpyridin-4-yl)-1H-indazol-5-yl)pyridin-2(1H)-one]	< 10	500 to 1000
Cc1cc(-c2n[nH]c3ccc(-c4ccn(Cc5ccc(C#N)cc5)c(=O)c4)cc23)ccn1 [Example 64, 4-((4-(3-(2-methylpyridin-4-yl)-1H-indazol-5-yl)-2-oxopyridin-1(2H)-yl)methyl)benzonitrile]	< 10	1000 to 5000
Cc1cc(-c2n[nH]c3ccc(-c4ccn(Cc5ccc(F)c(Cl)c5)c(=O)c4)cc23)ccn1 [Example 65, 1-(3-chloro-4-fluorobenzyl)-4-(3-(2-methylpyridin-4-yl)-1H-indazol-5-yl)pyridin-2(1H)-one]	< 10	500 to 1000
Cc1cc(-c2n[nH]c3ccc(-c4ccn(Cc5cc(Cl)ccc5F)c(=O)c4)cc23)ccn1 [Example 66]	< 10	500 to 1000
Cc1cc(-c2n[nH]c3ccc(-c4ccn(Cc5cccc(OC(F)(F)F)c5)c(=O)c4)cc23)ccn1 [Example 67, 4-(3-(2-methylpyridin-4-yl)-1H-indazol-5-yl)-1-(3-(trifluoromethoxy)benzyl)pyridin-2(1H)-one]	< 10	1000 to 5000
Cc1cc(-c2n[nH]c3ccc(-c4ccn(Cc5cccc(F)c5)c(=O)c4)cc23)ccn1 [Example 68, 1-(3-fluorobenzyl)-4-(3-(2-methylpyridin-4-yl)-1H-indazol-5-yl)pyridin-2(1H)-one]	< 10	1000 to 5000
Cc1cc(-c2n[nH]c3ccc(-c4ccn(Cc5ccc(Br)c(F)c5)c(=O)c4)cc23)ccn1 [Example 69, 1-(4-bromo-3-fluorobenzyl)-4-(3-(2-methylpyridin-4-yl)-1H-indazol-5-yl)pyridin-2(1H)-one]	< 10	500 to 1000
Cc1cc(-c2n[nH]c3ccc(-c4ccn(Cc5cccc(C(F)(F)F)c5)c(=O)c4)cc23)ccn1 [Example 70, 4-(3-(2-methylpyridin-4-yl)-1H-indazol-5-yl)-1-(3-(trifluoromethyl)benzyl)pyridin-2(1H)-one]	< 10	500 to 1000
Cc1cc(-c2n[nH]c3ccc(-c4ccn(Cc5cccc(C#N)c5)c(=O)c4)cc23)ccn1 [Example 71, 3-((4-(3-(2-methylpyridin-4-yl)-1H-indazol-5-yl)-2-oxopyridin-1(2H)-yl)methyl)benzonitrile]	< 10	1000 to 5000
Cc1cc(-c2n[nH]c3ccc(-c4ccn(Cc5cc(F)ccc5F)c(=O)c4)cc23)ccn1 [Example 72, 1-(2,5-difluorobenzyl)-4-(3-(2-methylpyridin-4-yl)-1H-indazol-5-yl)pyridin-2(1H)-one]	< 10	500 to 1000
Cc1cc(-c2n[nH]c3ccc(-c4ccn(Cc5cc(F)cc(C(F)(F)F)c5)c(=O)c4)cc23)ccn1 [Example 73, 1-(3-fluoro-5-(trifluoromethyl)benzyl)-4-(3-(2-methylpyridin-4-yl)-1H-indazol-5-yl)pyridin-2(1H)-one]	< 10	500 to 1000
Cc1cc(-c2n[nH]c3ccc(-c4ccn(C(C)c5cc(F)cc(Br)c5)c(=O)c4)cc23)ccn1 (centres unmarked) [Example 74, 1-(1-(3-bromo-5-fluorophenyl)ethyl)-4-(3-(2-methylpyridin-4-yl)-1H-indazol-5-yl)pyridin-2(1H)-one]	< 10	500 to 1000
Cc1cc(-c2n[nH]c3ccc(-c4ccn(Cc5cccc(Br)c5F)c(=O)c4)cc23)ccn1 [Example 75, 1-(3-bromo-2-fluorobenzyl)-4-(3-(2-methylpyridin-4-yl)-1H-indazol-5-yl)pyridin-2(1H)-one]	< 10	500 to 1000
Cc1cc(-c2n[nH]c3ccc(-c4ccn(Cc5cc(F)c(F)c(F)c5)c(=O)c4)cc23)ccn1 [Example 76, 4-(3-(2-methylpyridin-4-yl)-1H-indazol-5-yl)-1-(3,4,5-trifluorobenzyl)pyridin-2(1H)-one]	< 10	500 to 1000

Continued, values first:

IC50 (human ERK2) [nM]	IC50 (Colo205 cell line) [nM]	Structure (SMILES)
< 10	≤ 500	Cn1cc(-c2n[nH]c3ccc(-c4ccn([C@H](CO)c5cccc(Br)c5)c(=O)c4)cc23)cn1 [Example 45, (S)-1-(1-(3-bromophenyl)-2-hydroxyethyl)-4-(3-(1-methyl-1H-pyrazol-4-yl)-1H-indazol-5-yl)pyridin-2(1H)-one]
< 10	≤ 500	Cn1cc(-c2n[nH]c3ccc(-c4ccn([C@H](CO)c5ccc(F)c(Br)c5)c(=O)c4)cc23)cn1 [Example 46, (S)-1-(1-(3-bromo-4-fluorophenyl)-2-hydroxyethyl)-4-(3-(1-methyl-1H-pyrazol-4-yl)-1H-indazol-5-yl)pyridin-2(1H)-one]
< 10	≤ 500	Cn1cc(-c2n[nH]c3ccc(-c4ccn([C@H](CO)c5cccc(I)c5)c(=O)c4)cc23)cn1 [Example 47, (S)-1-(2-hydroxy-1-(3-iodophenyl)ethyl)-4-(3-(1-methyl-1H-pyrazol-4-yl)-1H-indazol-5-yl)pyridin-2(1H)-one]
< 10	500 to 1000	CC(C)Oc1ccc(-c2n[nH]c3ccc(-c4ccn([C@H](CO)c5cccc(I)c5)c(=O)c4)cc23)cn1 [Example 48, (S)-1-(2-hydroxy-1-(3-iodophenyl)ethyl)-4-(3-(6-isopropoxypyridin-3-yl)-1H-indazol-5-yl)pyridin-2(1H)-one]
< 10	≤ 500	Cc1cc(-c2n[nH]c3ccc(-c4ccn([C@H](CO)c5cccc(I)c5)c(=O)c4)cc23)ccn1 [Example 49, (S)-1-(2-hydroxy-1-(3-iodophenyl)ethyl)-4-(3-(2-methylpyridin-4-yl)-1H-indazol-5-yl)pyridin-2(1H)-one]
< 10	500 to 1000	O=c1cc(-c2ccc3[nH]nc(-c4cnn(C5CC5)c4)c3c2)ccn1[C@H](CO)c1ccc(F)c(Cl)c1 [Example 50, (S)-1-(1-(3-chloro-4-fluorophenyl)-2-hydroxyethyl)-4-(3-(1-cyclopropyl-1H-pyrazol-4-yl)-1H-indazol-5-yl)pyridin-2(1H)-one]
< 10	≤ 500	O=c1cc(-c2ccc3[nH]nc(-c4cnn(C(F)F)c4)c3c2)ccn1[C@H](CO)c1ccc(F)c(Cl)c1 [Example 51, (S)-1-(1-(3-chloro-4-fluorophenyl)-2-hydroxyethyl)-4-(3-(1-(difluoromethyl)-1H-pyrazol-4-yl)-1H-indazol-5-yl)pyridin-2(1H)-one]
< 10	1000 to 5000	COCCn1cc(-c2n[nH]c3ccc(-c4ccn([C@H](CO)c5ccc(F)c(Cl)c5)c(=O)c4)cc23)cn1 [Example 52, (S)-1-(1-(3-chloro-4-fluorophenyl)-2-hydroxyethyl)-4-(3-(1-(2-methoxyethyl)-1H-pyrazol-4-yl)-1H-indazol-5-yl)pyridin-2(1H)-one]
< 10	500 to 1000	Cc1cc(-c2n[nH]c3ccc(-c4ccn(Cc5cccc(Cl)c5)c(=O)c4)cc23)ccn1 [Example 53, 1-(3-chlorobenzyl)-4-(3-(2-methylpyridin-4-yl)-1H-indazol-5-yl)pyridin-2(1H)-one]
< 10	≤ 500	Cc1cc(-c2n[nH]c3ccc(-c4ccn(Cc5cc(Br)ccc5F)c(=O)c4)cc23)ccn1 [Example 55, 1-(5-bromo-2-fluorobenzyl)-4-(3-(2-methylpyridin-4-yl)-1H-indazol-5-yl)pyridin-2(1H)-one]
< 10	500 to 1000	Cc1cc(-c2n[nH]c3ccc(-c4ccn(Cc5ccc(F)c(Br)c5)c(=O)c4)cc23)ccn1 [Example 56, 1-(3-bromo-4-fluorobenzyl)-4-(3-(2-methylpyridin-4-yl)-1H-indazol-5-yl)pyridin-2(1H)-one]
< 10	≤ 500	Cc1cc(-c2n[nH]c3ccc(-c4ccn(Cc5cccc(I)c5)c(=O)c4)cc23)ccn1 [Example 57, 1-(3-iodobenzyl)-4-(3-(2-methylpyridin-4-yl)-1H-indazol-5-yl)pyridin-2(1H)-one]
< 10	500 to 1000	Cc1cc(-c2n[nH]c3ccc(-c4ccn(Cc5cc(F)cc(Cl)c5)c(=O)c4)cc23)ccn1 [Example 58, 1-(3-chloro-5-fluorobenzyl)-4-(3-(2-methylpyridin-4-yl)-1H-indazol-5-yl)pyridin-2(1H)-one]
< 10	1000 to 5000	Cc1cc(-c2n[nH]c3ccc(-c4ccn(Cc5ccccc5C(F)(F)F)c(=O)c4)cc23)ccn1 [Example 59, 4-(3-(2-methylpyridin-4-yl)-1H-indazol-5-yl)-1-(2-(trifluoromethyl)benzyl)pyridin-2(1H)-one]

Source: patent US11242334B2, “Heterocyclic compounds as kinase inhibitors, compositions comprising the heterocyclic compound, and methods of use thereof” (JS INNOPHARM (SHANGHAI) LTD, priority 2017, dated 2022)
